Series [1] relates to Protein kinase C, as a mixture of isozymes. The experiment in a line: PKC activity assay, 32P transfer from [γ-32P]ATP to histone III-S. The note with it: for inhibition at 10 μM: 10 μM inhibitor; for IC50: histone III-S substrate, 15 min, three trials per concentration. Format: biochemical, rat. An excerpt:
In practicing various aspects of the present invention, compounds in accordance with the invention can be tested for a biological activity of interest using any assay protocol that is predictive of activity in vivo. For example, a variety of convenient assay protocols are available that are generally predictive of PKC inhibitory activity in vivo. In one approach, PKC inhibitory activity can be assessed using the PKC assay described in Example 9 (also described by Toullec et al. (1991) J. Biol. Chem. 266:15771). In that assay, the PKC was derived, as a mixture of isozymes, from rat brains, and activity was determined by incorporation of ^32P radiolabeled phosphate, derived from [γ-^32P]-ATP, onto a PKC substrate. Another assay for assessing PKC inhibitory activity is described in Example 10; see also U.S. Patent Application Publication No. 2002/0137789 A1 to Wender et al. In this assay, Ki values are determined for potential inhibitors based on competition with radiolabeled phorbol 12,13-dibutyrate for binding to a mixture of PKC isozymes.
Materials used: Phosphatidyl serine and 1,2 sn-dioleylglycerol were obtained from Serdary Research Laboratories. Protein kinase C, as a mixture of isozymes, was obtained in isolated and purified form from Prof. Daria Mochley-Rosen and Tamar Lion (Stanford University, Department of Molecular Pharmacology).
PKC activity was assayed by measuring ^32Pi transferred from [γ-^32P]ATP to histone III-S (Sigma). The reaction mixture (100 μL) included 20 mM Tris-HCl (pH 7.5) (30 μL), 10 mM CaCl2 in 20 mM Tris-HCl (10 μL), a sonicated suspension of 2.4 mg/mL phosphatidylserine and 80 μg/mL 1,2-diacylglycerol in 20 mM Tris-HCl (10 μL), a PKC preparation of 4.5 mg/mL total PKC with 5–9 U activity/mL relative to histone III-S (10 μL), a solution of 0.35 mg/mL histone III-S (Sigma) in 20 mM Tris-HCl (10 μL), and a solution of the inhibitor at various concentrations in 20 mM Tris-HCl containing <1% DMSO (10 μL). The reaction was started by the addition of a solution containing 27 μL of 3.75 mM ATP (non-radiolabeled), 100 μL 1.0 M MgCl2, and 1.3 μL of […] [γ-^32P]ATP, and 872 μL of 20 mM Tris-HCl (pH 7.5) (20 μL). After 15 min, the reaction was stopped by the addition of 30 μL of 200 mM EDTA and 200 mM ATP (non-radiolabeled). The reaction mixture was adsorbed onto phosphocellulose paper squares (Whatman P81), and allowed to dry for 5 min. The phosphocellulose paper squares were then washed with EtOH (3×1 min). The total protein phosphorylation was quantitated by scintillation counting. Counts per minute were averaged among three trials at each concentration.

Series [2] concerns PKC. The note with it: Tamaoki et al. (1986); cited from earlier work.
Series [3] has as its system five of the PKC isoforms. The note with it: cited from earlier work.

The IC50 is the concentration that gives 50% inhibition. For orientation: melting point means the temperature of the solid-liquid transition.

Turning to `CN1C(=O)c2c3c(c4[nH]c5ccccc5c4c2C1=O)CCC(=O)CC3` [Compound 10], the melting point is 309 to 310 °C (dec.). For the same compound, in series [1], the “inhibition at 10 μM” value is “^A36% inhibition at 10 μM” and the IC50 was over 10 µM.
As for `CN[C@H]1CC2(C)OC(C)([C@H]1OC)n1c3ccccc3c3c4c(c5c6ccccc6n2c5c31)C(=O)NC4` (stereo partly drawn) [Staurosporin], the IC50 is 0.0027 µM in series [2] and under 0.01 µM in series [3].
`CN1C(=O)c2c3c(c4c(c2C1=O)c1ccccc1n4CCCNC(=O)OC(C)(C)C)CCC(O)CC3` (stereo not drawn) [Compound 14]: in series [1], the “inhibition at 10 μM” value is given as “^B40% inhibition at 10 μM” and the IC50 was over 10 µM.
For `O=C1NC(=O)c2c1c1c(c3[nH]c4ccccc4c23)CCC(O)CC1` (stereo not drawn) [Compound 12], the IC50 in series [1] amounted to 4.5 µM.
Still for that read-out and setting: under `O=C1CCc2c3c(c4c([nH]c5ccccc54)c2CC1)C(=O)NC3=O` [Compound 11] stands 3.6 µM.

Source of the values: patent US7232842B2, “Kinase inhibitors and associated pharmaceutical compositions and methods of use” (Board of Trustees of the LeLand Stanford Junior University, priority 2003, dated 2007).
